Assay results as given in patent publication US20180105548A1, “A novel compound (KS-513) isolated from Pseudolysimachion rotundum var. subintegrum, the composition comprising the same preventing or treating allergic disease, inflammatory disease, asthma or chronic obstructive pulmonary disease and the use thereof” (priority 2015, published 2018).

Experiments:
Assay type in all cases: cell-based, mouse
COX-2 = COX-2 protein expression in RAW264.7 cell induced by LPS (Western blot); settings: LPS 1 μg/ml, FIG. 4A
Procedure: (§1) In order to determine the inhibitory effect on the COX-2 protein expression and the reproduced level of PGE2, following test was performed by the method disclosed in the literature (Chen, C, et al., 1999, Involvement of p 38 mitogen-activated protein kinase in lipopolysaccharide-induced iNOS and COX-2 expression in J774 macrophage, Immunology, 97, pp 124-129)
The expressed level of COX-2 in RAW264.7 cell induced by LPS (1 μg/ml) was determined by using Western blot analysis according to the method disclosed in Experimental Example 3.

iNOS = test: mRNA expression of iNOS in RAW264.7 cell line induced by LPS (real-time PCR); settings: for iNOS mRNA expression, Fold (value compared with a negative group) / iNOS mRNA expression, Inhibition ratio (IR) compared with LPS treatment group: LPS 1 μg/ml, 12 hours
Procedure: (§2) In order to determine the inhibitory effect on the mRNA expression of pro-inflammatory medicated enzyme such as iNOS or COX-2, and pro-inflammatory medicated cytokines such as IL-1beta, IL-6, TNF-alpha in RAW264.7 cell line induced by LPS, following test using by real-time PCR (real-time polymerase chain reaction, quantitative real time polymerase chain reaction, qPCR) was performed according to the method disclosed in the literature (Livak, K. J., Schimittgen T. D., 2001, Analysis of relative gene expression data using real-time quantitiative PCR and the 2 (-Delta Delta C(T) method, Methods 25, p 402-408):
(§3) RAW264.7 cell was inoculated into 6-well-plates in the concentration of 1×10^6 cell/well to incubate for 12 hours. Various concentration of KS-513 compound (2.5, 5, 10 and 20 μM) was pre-treated therewith and 1 μg/mL of LPS (L6529, Sigma) was added thereto to incubate for 12 hours.
(§4) To extract total RNA, RNA was extracted using by Triazol B (invitrogen) and cDNA was synthesized using by Omniscript RT kit (205113, Qiagen, Gmbh, Hilden, Germany) after the quantification. The synthesized cDNA was mixed with its template and the primers shown in Table 3 (SEQ.I.D. 1-14), performed to denaturation at 94° C. for 5 mins using by PCR mix (PCR master Mix, Bioneer, Korea), and reacted as follows: 1 cycle for pre-denaturation; at 95° C. for 30 sec, 60° C. for 45 sec, 72° C. for 45 sec, 30 cycles for denaturation; 10 mins at 72° C., 1cycle for final extension. (FIG. 2)

[1] = Cytotoxicity test (CCK-8) in RAW264.7 cell; settings: mouse, RAW264.7 macrophage cells
Procedure: (§5) RAW264.7 cell (TIB-71, ATCC), a mouse macrophage cell, was suspended in 5% FBS (Fetal Bovine Serum)-supplemented DMEM (Dulbecco's Modified Eagle Medium, Gibco) medium in a concentration of 1×10^5 cells/ml, and 100 μL of the suspension was inoculated into 96 well plates to adhere cell to the plate for 4 hours. Various concentrations of test sample (KS 513 compound) were treated therewith and cultured for 24 hours. 10 μL of CCK-8 solution was mixed therewith according to the manufacture's manual kit (Dojindo Co. Ltd), reacted from 30 mins to 4 hours, and the absorbance of the solution was determined at […]. The cell viability was calculated according to following Math formulae 1 based on negative control group treated with 0.2% DMSO and the result was shown in Table 2.
(§6) Cell viability (%)=OD 570 nm (test group)/OD 570 nm (negative control group)×100 Math formulae 1

RAW264.7 cell = test: Cytotoxicity test (CCK-8) in RAW264.7 cell; settings: up to 80 μM
Procedure: as §5, §6

PGE2 = PGE2 production in LPS-treated RAW264.7 cell (EIA); settings: for PGE2 production (relative % comparing with LPS treatment group) / PGE2 production, Inhibitory ratio (%): LPS 1 μg/mL, 24 hours
Procedure: as §1
RAW264.7 cell was inoculated into 96 well plates in the concentration of 1×10^5 cell/well to incubate for 18 hours. Various concentration of KS-513 compound (2.5, 5, 10 and 20 μM) was pre-treated therewith and 1 μg/mL of LPS (L6529, Sigma) was added thereto to incubate for 24 hours. The PGE2 level in the cell was determined by Enzyme immunoassay (EIA; Amersham Pharmacia) system and the result was shown in FIG. 4A, 4B and Table 6.

IL-1beta [2] = test: IL-1beta production in LPS-treated RAW264.7 cell (ELISA); settings: for IL-1beta production (relative % comparing with LPS treatment group) / IL-1beta production, Inhibitory ratio (%): LPS 1 μg/mL, 24 hours
Procedure: (§7) RAW264.7 cell was inoculated into 96 well plates in the concentration of 1×10^5 cell/well to incubate for 18 hours. Various concentration of KS-513 compound (2.5, 5, 10 and 20 μM) was pre-treated therewith and 1 μg/mL of LPS (L6529, Sigma) was added thereto to incubate for 24 hours. The level of inflammatory cytokines such as IL-1beta, IL-6, TNF-alpha etc in the cell medium was determined by ELISA kit (IL-1beta:559603, IL-6:555240, TNF-alpha:5558534, BD) and the result was shown in FIG. 5 and Table 7-9.

IL-6 = IL-6 production in LPS-treated RAW264.7 cell (ELISA); settings: for IL-6 production (relative % comparing with LPS treatment group) / IL-6 production, Inhibitory ratio (%): LPS 1 μg/mL, 24 hours
Procedure: as §7

IL-1beta [3] = test: mRNA expression of IL-1beta in RAW264.7 cell line induced by LPS (real-time PCR); settings: for IL-1beta mRNA expression, Fold (value compared with a negative group) / IL-1beta mRNA expression, Inhibition ratio (IR) compared with LPS treatment group: LPS 1 μg/ml, 12 hours
Procedure: as §2, §3, §4

[4] = various concentration, compared with control group treated with LPS (100%)
[5] = vs LPS treatment group (1 μg/ml), FIG. 5

Structure (SMILES): CO[C@@H]1C[C@H]2[C@H](OC(=O)c3ccc(O)cc3)[C@@H]3O[C@]3(CO)[C@H]2[C@H](O[C@@H]2O[C@H](CO)[C@@H](O)C(O)[C@H]2O)O1 (stereo partly drawn) [KS-513, (1aS, 1bS,2S,4S,5aR,6S,6aS)-1a-(hydroxymethyl)-4-methoxy-2-(((2S,3R,5S,6R)-3,4,5-trihydroxy-6-(hydroxymethyl)tetrahydro-2H-pyran-2-yl)oxy)octahydrooxireno[2′,3′:4,5]cyclopenta[1,2-c]pyran-6-yl 4-hydroxybenzoate]
- expressed level of COX-2 protein (COX-2): reduced in a dose dependent manner
- iNOS mRNA expression, Fold (value compared with a negative group) (iNOS; 2.5 μM): 7.25 ± 2.51 Fold
- iNOS mRNA expression, Inhibition ratio (IR) compared with LPS treatment group (iNOS; 2.5 μM): 18.41%
- iNOS mRNA expression, Fold (value compared with a negative group) (iNOS; 5 μM): 5.94 ± 2.91 Fold
- iNOS mRNA expression, Inhibition ratio (IR) compared with LPS treatment group (iNOS; 5 μM): 33.09%
- iNOS mRNA expression, Fold (value compared with a negative group) (iNOS; 10 μM): 2.48 ± 0.19 Fold
- iNOS mRNA expression, Inhibition ratio (IR) compared with LPS treatment group (iNOS; 10 μM): 72.12%
- iNOS mRNA expression, Fold (value compared with a negative group) (iNOS; 20 μM): 1.32 ± 0.47 Fold
- iNOS mRNA expression, Inhibition ratio (IR) compared with LPS treatment group (iNOS; 20 μM): 85.19%
- expressed level of mRNA of iNOS (iNOS; [4]): significantly decreased in a dose dependent manner
- viability at 24 h, 2.5 µM ([1]; 2.5 μM, 24 hours, vs negative control 0.2% DMSO, read-out: RAW264.7 cell viability (%, mean ± variation)): 99.6 ± 3.66%
- viability at 24 h, 5 µM ([1]; 5 μM, 24 hours, vs negative control 0.2% DMSO, read-out: RAW264.7 cell viability (%, mean ± variation)): 99.3 ± 5.68%
- viability at 24 h, 10 µM ([1]; 10 μM, 24 hours, vs negative control 0.2% DMSO, read-out: RAW264.7 cell viability (%, mean ± variation)): 98.2 ± 3.28%
- viability at 24 h, 20 µM ([1]; 20 μM, 24 hours, vs negative control 0.2% DMSO, read-out: RAW264.7 cell viability (%, mean ± variation)): 94.7 ± 3.03%
- viability at 24 h, 40 µM ([1]; 40 μM, 24 hours, vs negative control 0.2% DMSO, read-out: RAW264.7 cell viability (%, mean ± variation)): 97.2 ± 7%
- viability at 24 h, 80 µM ([1]; 80 μM, 24 hours, vs negative control 0.2% DMSO, read-out: RAW264.7 cell viability (%, mean ± variation)): 95.1 ± 2.73%
- viability at 24 h ([1]; at less than 80 μM): > 95%
- cytotoxicity in RAW264.7 cell (RAW264.7 cell): did not show cytotoxicity
- PGE2 production (relative % comparing with LPS treatment group) (PGE2; 2.5 μM): 92.68 ± 7.29%
- PGE2 production, Inhibitory ratio (%) (PGE2; 2.5 μM): 7.31%
- PGE2 production (relative % comparing with LPS treatment group) (PGE2; 5 μM): 72.87 ± 8.78%
- PGE2 production, Inhibitory ratio (%) (PGE2; 5 μM): 27.13%
- PGE2 production (relative % comparing with LPS treatment group) (PGE2; 10 μM): 51.65 ± 8.44%
- PGE2 production, Inhibitory ratio (%) (PGE2; 10 μM): 48.35%
- PGE2 production (relative % comparing with LPS treatment group) (PGE2; 20 μM): 28.23 ± 4.72%
- PGE2 production, Inhibitory ratio (%) (PGE2; 20 μM): 71.77%
- reproduced ratio of PGE2 (PGE2; based on LPS treatment (100%)): reduced in a dose dependent manner
- IL-1beta production (relative % comparing with LPS treatment group) (IL-1beta [2]; 2.5 μM): 95.17 ± 3.68%
- IL-1beta production, Inhibitory ratio (%) (IL-1beta [2]; 2.5 μM): 4.83%
- IL-1beta production (relative % comparing with LPS treatment group) (IL-1beta [2]; 5 μM): 76.69 ± 3.40%
- IL-1beta production, Inhibitory ratio (%) (IL-1beta [2]; 5 μM): 23.31%
- IL-1beta production (relative % comparing with LPS treatment group) (IL-1beta [2]; 10 μM): 61.56 ± 3.18%
- IL-1beta production, Inhibitory ratio (%) (IL-1beta [2]; 10 μM): 38.44%
- IL-1beta production (relative % comparing with LPS treatment group) (IL-1beta [2]; 20 μM): 46.10 ± 2.51%
- IL-1beta production, Inhibitory ratio (%) (IL-1beta [2]; 20 μM): 53.9%
- level of produced IL-1beta (IL-1beta [2]; [5]): reduced in a dose dependent manner
- IL-6 production (relative % comparing with LPS treatment group) (IL-6; 2.5 μM): 75.21 ± 2.20%
- IL-6 production, Inhibitory ratio (%) (IL-6; 2.5 μM): 24.79%
- IL-6 production (relative % comparing with LPS treatment group) (IL-6; 5 μM): 71.34 ± 5.75%
- IL-6 production, Inhibitory ratio (%) (IL-6; 5 μM): 28.66%
- IL-6 production (relative % comparing with LPS treatment group) (IL-6; 10 μM): 51.13 ± 2.31%
- IL-6 production, Inhibitory ratio (%) (IL-6; 10 μM): 48.87%
- IL-6 production (relative % comparing with LPS treatment group) (IL-6; 20 μM): 39.25 ± 2.85%
- IL-6 production, Inhibitory ratio (%) (IL-6; 20 μM): 60.75%
- level of produced IL-6 (IL-6; [5]): reduced in a dose dependent manner
- IL-1beta mRNA expression, Fold (value compared with a negative group) (IL-1beta [3]; 2.5 μM): 10.41 ± 1.09 Fold
- IL-1beta mRNA expression, Inhibition ratio (IR) compared with LPS treatment group (IL-1beta [3]; 2.5 μM): 37.69%
- IL-1beta mRNA expression, Fold (value compared with a negative group) (IL-1beta [3]; 5 μM): 5.72 ± 0.24 Fold
- IL-1beta mRNA expression, Inhibition ratio (IR) compared with LPS treatment group (IL-1beta [3]; 5 μM): 65.75%
- IL-1beta mRNA expression, Fold (value compared with a negative group) (IL-1beta [3]; 10 μM): 2.56 ± 0.14 Fold
- IL-1beta mRNA expression, Inhibition ratio (IR) compared with LPS treatment group (IL-1beta [3]; 10 μM): 84.68%
- IL-1beta mRNA expression, Fold (value compared with a negative group) (IL-1beta [3]; 20 μM): 1.70 ± 0.59 Fold
- IL-1beta mRNA expression, Inhibition ratio (IR) compared with LPS treatment group (IL-1beta [3]; 20 μM): 89.85%
- expressed level of mRNA of IL-1beta (IL-1beta [3]; [4]): significantly decreased in a dose dependent manner
